A value given as a limit tells only on which side of the number the result lay.

The target in one test is T1, M1 muscarinic receptor (Homo sapiens, UniProt P11229).
T1 construct: expressed in transfected cells; host or cells: CHO (M1-CHO)
T1 sequence (P11229 1-460): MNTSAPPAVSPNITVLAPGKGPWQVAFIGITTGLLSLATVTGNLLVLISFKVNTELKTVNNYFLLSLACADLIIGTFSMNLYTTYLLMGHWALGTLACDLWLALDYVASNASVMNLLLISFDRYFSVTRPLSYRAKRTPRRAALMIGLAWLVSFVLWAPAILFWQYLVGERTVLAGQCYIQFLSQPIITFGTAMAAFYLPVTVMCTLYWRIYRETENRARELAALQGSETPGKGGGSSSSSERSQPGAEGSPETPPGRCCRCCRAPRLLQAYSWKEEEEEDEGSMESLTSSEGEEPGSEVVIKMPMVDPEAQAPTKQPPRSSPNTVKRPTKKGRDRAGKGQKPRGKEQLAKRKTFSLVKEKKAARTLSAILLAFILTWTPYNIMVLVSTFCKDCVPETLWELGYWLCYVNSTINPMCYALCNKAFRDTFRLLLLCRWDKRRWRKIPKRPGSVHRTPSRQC
The test can be described thus: Functional mobilization of intracellular calcium (FLIPR), M1-CHO cells. The format is cell-based. The following applies: for Emax: 100% efficacy is the maximum response obtained with the Carbachol control; for M1 Activity: CHO cells expressing M1, calcium mobilization. Here is the method: (§1) Functional Mobilization of Intracellular Calcium to Determine Muscarinic Receptor Activity:
(§2) CHO cells expressing muscarinic receptors (M1 to M5) are grown as monolayers in tissue culture flasks at 37° C. in a humidified atmosphere containing 5% CO2 and passaged every 3-5 days. The growth media is Dulbecco's modified eagles medium (DMEM, Gibco Cat#12430-054), containing 25 mM Hepes and supplemented with Fetal Bovine Serum (Hyclone, cat# SH30071.03), 0.1 mM of MEM non-essential amino acids (GIBCO, Cat#11140-050), 1 mM MEM Sodium Pyruvate (GIBCO Cat#11360-070) and 100 units/ml of Penicillin G and 100 μg/ml of Streptomycin (GIBCO Cat#15140-122). The recombinant muscarinic receptor cell lines are grown under antibiotic pressure with media containing 25 μg/ml zeocin and 500 μg/ml G418 (M1-CHO), 4 μg/ml puromycin, 50 μg/ml zeocin and 2.5 μg/ml blasticidin (M2 and M4-CHO) or 50 μg/ml zeocin and 4 μg/ml puromycin (M3 and M5-CHO).
(§3) Cells are harvested at 80-90% confluence using Versene (GIBCO Cat#15040-066), collected by centrifugation and seeded 18-24 hours prior to running the calcium assay at a density of 5,000-10,000 cells/well in […], clear-bottomed 384-well plates (BD Biocoat, poly-D-lysine, Cat#356663). The day of the experiment, the cells are washed with a plate washer (Bioteck Instrunents, ELX 405) using bath 1 buffer (140-mM NaCl, 4.5-mM KCl, 2-mM CaCl2, 1-mM MgCl2, 10-mM Hepes-Na, 10-mM Glucose, pH 7.4, with NaOH) containing 1 mM Probenecid. Next, the calcium dye Fluo-3 (25 μl/well of Fluo-3 AM at 4 μM, Molecular Probes F-1241, in Bath 1 buffer containing 1 mM Probenecid) is added to the 25 μl of Bath 1 remaining in each well after the plate wash and the dye is loaded at 37° C. in the tissue culture incubator for 60-90 min. The fluorescent dye is removed using the plate washer with Bath 1 containing 1 mM Probenecid, leaving 25 μl/well of this solution after the wash. Alternatively, cells can be loaded with the calcium indicator from Molecular Devices (Calcium 3 Assay Reagents, Cat # R7181) adding 5 μl of a 5× solution dye in Bath 1 containing 1 mM Probenecid (10 ml per dye flask cat# R7182 to generate a solution 20×) to 20 μl of the same buffer. After loading for 60 min, the experiment can be run without having to remove the dye.
(§4) Compounds are prepared at a 2× fold concentration in a 96-well plate (round bottom, Costar Corning cat#3656), by reconstituting the pre-spotted compounds in bath 1 containing 1 mM probenecid. The final concentration DMSO is 0.5%, and the amount of DMSO is normalized across the assay plate. To determine an agonist action of the compounds on muscarinic receptors, the reconstituted compounds are added (25 μl compound/well) to the cell assay plate (containing 25 μl/well) using the multi-channel robotic system of the FLIPR 3 Instrument (Molecular Devices, Sunnyvale, Calif.). To determine a functional inhibitory action of the compounds on muscarinic receptors, the reconstituted compounds are added (25 μl compound/well) to the assay plate and pre-incubated for 15 min prior to adding 25 μl of Carbachol at 3× the EC80 for each muscarinic subtype. Alternatively, the compounds can be co-applied simultaneously with the agonist. In both assay modes, the fluorescence is recorded for 60 sec (excitation wavelength is […] and emission wavelength 540 nm) using the FLIPR 3 instrument.
(§5) The potency, efficacy and selectivity of the muscarinic compounds were evaluated by screening the compound activity across the whole family (M1 to M5 cells). Compounds were also screened for activity on other proteins such as other GPCRs and ion channels to determine selectivity on M4 receptors.
(§6) Examples of activities and efficacies of the muscarinic compounds of formulae (I, Ia, Ib, Ic, Id, and Ie) on modulating M1 and M4 receptors are shown below in Table 4. […]
(Calcium flux is commonly read through the fluorescence of an indicator in the cells.)

The target of the next test is T2, M4 muscarinic receptor (Homo sapiens, UniProt P08173).
T2 construct: expressed in transfected cells; host or cells: CHO (M4-CHO)
T2 sequence (P08173 1-479): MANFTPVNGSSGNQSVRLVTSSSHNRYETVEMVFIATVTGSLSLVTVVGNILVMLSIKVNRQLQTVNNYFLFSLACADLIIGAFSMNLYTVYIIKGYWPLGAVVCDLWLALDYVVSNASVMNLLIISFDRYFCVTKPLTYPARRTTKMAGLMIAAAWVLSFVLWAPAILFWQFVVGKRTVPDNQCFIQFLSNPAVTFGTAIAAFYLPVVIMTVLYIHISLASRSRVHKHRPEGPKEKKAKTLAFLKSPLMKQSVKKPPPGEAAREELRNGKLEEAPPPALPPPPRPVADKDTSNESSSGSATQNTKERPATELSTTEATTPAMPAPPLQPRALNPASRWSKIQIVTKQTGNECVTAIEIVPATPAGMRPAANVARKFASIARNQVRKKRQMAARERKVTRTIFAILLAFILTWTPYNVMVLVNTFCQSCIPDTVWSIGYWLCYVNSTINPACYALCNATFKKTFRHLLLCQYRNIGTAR
Briefly: Functional mobilization of intracellular calcium (FLIPR), M4-CHO cells. The test is classed as cell-based. The note with it: for Emax: 100% efficacy is the maximum response obtained with the Carbachol control; for M4 Activity: CHO cells expressing M4, calcium mobilization. On the procedure:
as §1, §2, §3, §4, §5, §6

The Emax is the size of the effect at its maximum, as opposed to the concentration needed. For `COC(=O)N1CCC(N2CCC3(CCN(C(=O)N(C)C)c4ccccc43)CC2)CC1` [compound 2], at M1 muscarinic receptor, the Emax lay within 25 to 100% and the “M1 Activity” value was “+++ (activity was measured to be less than 2.0 μM)”. In addition, on M4 muscarinic receptor, the Emax lay in the range of 25 to 100% and the “M4 Activity” value is “+++ (activity was measured to be less than 2.0 μM)”.
On to `CCOC(=O)N1CCC(N2CCC3(CCN(C(=O)N(C)C)c4ccccc43)CC2)CC1` [compound 3], for which, at M1 muscarinic receptor, the maximum response (Emax) was 25 to 100% and the “M1 Activity” value is listed as “+++ (activity was measured to be less than 2.0 μM)”. Also, on M4 muscarinic receptor, the Emax was more than 100% and the “M4 Activity” value is “+++ (activity was measured to be less than 2.0 μM)”.
As for `C#CCOC(=O)N1CCC(N2CCC3(CCN(C(=O)N(C)C)c4ccccc43)CC2)CC1` [compound 4], at M1 muscarinic receptor, the Emax was in the range of 25 to 100% and the “M1 Activity” value is reported as “+++ (activity was measured to be less than 2.0 μM)”. Also, at M4 muscarinic receptor, the Emax was 25 to 100% and the “M4 Activity” value is given as “+++ (activity was measured to be less than 2.0 μM)”.
For `Cc1nsc(N2CCC(N3CCC4(CCN(C(=O)N(C)C)c5ccccc54)CC3)CC2)n1` [compound 6], on M1 muscarinic receptor, the Emax lay within 25 to 100% and the “M1 Activity” value is reported as “+++ (activity was measured to be less than 2.0 μM)”. Further, at M4 muscarinic receptor, the Emax lay in the range of 25 to 100% and the “M4 Activity” value is “+++ (activity was measured to be less than 2.0 μM)”.
As for `CCc1nsc(N2CCC(N3CCC4(CCN(C(=O)N(C)C)c5ccccc54)CC3)CC2)n1` [compound 7], on M1 muscarinic receptor, the Emax is 25 to 100% and the “M1 Activity” value is listed as “+++ (activity was measured to be less than 2.0 μM)”. Further, on M4 muscarinic receptor, the Emax is 25 to 100% and the “M4 Activity” value is listed as “+++ (activity was measured to be less than 2.0 μM)”.
With `CN(C)C(=O)N1CCC2(CCN(C3CCN(c4cnccn4)CC3)CC2)c2ccccc21` [compound 8], on M1 muscarinic receptor, the Emax was 25 to 100% and the “M1 Activity” value was “+++ (activity was measured to be less than 2.0 μM)”. On M4 muscarinic receptor, the Emax is 25 to 100% and the “M4 Activity” value was “+++ (activity was measured to be less than 2.0 μM)”.
For the compound `COC(=O)N1CCC(N2CCC3(CCN(C(C)=O)c4ccccc43)CC2)CC1` [compound 10], at M1 muscarinic receptor, the Emax was in the range of 25 to 100% and the “M1 Activity” value is given as “+++ (activity was measured to be less than 2.0 μM)”. Further, on M4 muscarinic receptor, the Emax is 25 to 100% and the “M4 Activity” value is recorded as “+++ (activity was measured to be less than 2.0 μM)”.
Take `C#CCOC(=O)N1CCC(N2CCC3(CCN(C(C)=O)c4ccccc43)CC2)CC1` [compound 12]: on M1 muscarinic receptor, the Emax was more than 100% and the “M1 Activity” value was “+++ (activity was measured to be less than 2.0 μM)”. Moreover, on M4 muscarinic receptor, the Emax lay in the range of 25 to 100% and the “M4 Activity” value was “+++ (activity was measured to be less than 2.0 μM)”.
As for `CC#CCOC(=O)N1CCC(N2CCC3(CCN(C(C)=O)c4ccccc43)CC2)CC1` [compound 13], on M1 muscarinic receptor, the Emax was 25 to 100% and the “M1 Activity” value is “+++ (activity was measured to be less than 2.0 μM)”. For the same compound, at M4 muscarinic receptor, the Emax lay in the range of 25 to 100% and the “M4 Activity” value is “+++ (activity was measured to be less than 2.0 μM)”.
As for `CCC#CCOC(=O)N1CCC(N2CCC3(CCN(C(C)=O)c4ccccc43)CC2)CC1` [compound 14], at M1 muscarinic receptor, the Emax fell in the range of 25 to 100% and the “M1 Activity” value is “+++ (activity was measured to be less than 2.0 μM)”. At M4 muscarinic receptor, the Emax was 25 to 100% and the “M4 Activity” value is “+++ (activity was measured to be less than 2.0 μM)”.
Turning to `CC(=O)N1CCC2(CCN(C3CCN(c4nc(C)ns4)CC3)CC2)c2ccccc21` [compound 15], on M1 muscarinic receptor, the Emax fell in the range of 25 to 100% and the “M1 Activity” value is given as “+++ (activity was measured to be less than 2.0 μM)”. Besides, at M4 muscarinic receptor, the Emax was in the range of 25 to 100% and the “M4 Activity” value is recorded as “+++ (activity was measured to be less than 2.0 μM)”.
With `CCc1nsc(N2CCC(N3CCC4(CCN(C(C)=O)c5ccccc54)CC3)CC2)n1` [compound 16], at M1 muscarinic receptor, the Emax is 25 to 100% and the “M1 Activity” value was “+++ (activity was measured to be less than 2.0 μM)”. For the same compound, at M4 muscarinic receptor, the Emax lay in the range of 25 to 100% and the “M4 Activity” value is recorded as “+++ (activity was measured to be less than 2.0 μM)”.
For `CC(=O)N1CCC2(CCN(C3CCN(c4cnccn4)CC3)CC2)c2ccccc21` [compound 17], on M1 muscarinic receptor, the Emax lay within 25 to 100% and the “M1 Activity” value was “+++ (activity was measured to be less than 2.0 μM)”. Moreover, at M4 muscarinic receptor, the Emax lay within 25 to 100% and the “M4 Activity” value is reported as “+++ (activity was measured to be less than 2.0 μM)”.
As for `CC(=O)N1CCC2(CCN(C3CCN(c4cnc5ccccc5n4)CC3)CC2)c2ccccc21` [compound 18], at M1 muscarinic receptor, the Emax is 25 to 100% and the “M1 Activity” value is reported as “++ (activity was measured to be from 2.0 μM to 10.0 μM)”. At M4 muscarinic receptor, the Emax fell in the range of 25 to 100% and the “M4 Activity” value is listed as “+++ (activity was measured to be less than 2.0 μM)”.
Turning to `CN(C)C(=O)N1CCC2(CCN(C3CCN(C(=O)OCCC#N)CC3)CC2)c2ccccc21` [compound 19], at M1 muscarinic receptor, the Emax was less than 25% and the “M1 Activity” value is “++ (activity was measured to be from 2.0 μM to 10.0 μM)”. Further, on M4 muscarinic receptor, the Emax fell in the range of 25 to 100% and the “M4 Activity” value is “+++ (activity was measured to be less than 2.0 μM)”.
For the compound `CN(C)C(=O)N1CCC2(CCN(C3CCN(c4nncs4)CC3)CC2)c2ccccc21` [compound 21], at M1 muscarinic receptor, the Emax lay within 25 to 100% and the “M1 Activity” value is given as “++ (activity was measured to be from 2.0 μM to 10.0 μM)”. Besides, on M4 muscarinic receptor, the Emax was less than 25% and the “M4 Activity” value was “++ (activity was measured to be from 2.0 μM to 10.0 μM)”.
On to `Cc1csc(N2CCC(N3CCC4(CCN(C(=O)N(C)C)c5ccccc54)CC3)CC2)n1` [compound 22], for which, at M1 muscarinic receptor, the Emax lay in the range of 25 to 100% and the “M1 Activity” value is “++ (activity was measured to be from 2.0 μM to 10.0 μM)”. On M4 muscarinic receptor, the Emax was 25 to 100% and the “M4 Activity” value is “++ (activity was measured to be from 2.0 μM to 10.0 μM)”.

The values above are taken from US8263605B2, “Modulators of muscarinic receptors” (Vertex Pharmaceutical Incorporated, priority 2006, dated 2012).
